Test results taken from patent US11160280B2, “Pesticial compounds” (BASF SE, priority 2017, dated 2021).

Columns and labels:
Type in all cases: in vivo
[1] = tested on: tobacco budworm (Heliothis virescens); assay: Action on tobacco budworm (Heliothis virescens), eggs on insect diet in microtiter plates; conditions: 120 h, egg and larval mortality after 5 days, read-out: mortality in comparison with untreated controls
Procedure: Example B5: Action on Tobacco Budworm (Heliothis virescens)
For evaluating control of tobacco budworm (Heliothis virescens) the test unit consisted of 96-well-microtiter plates containing an insect diet and 15-25 H. virescens eggs.
The compounds were formulated using a solution containing 75% v/v water and 25% v/v DMSO. Different concentrations of formulated compounds were sprayed onto the insect diet at 10 μl, using a custom built micro atomizer, at two replications.
After application, microtiter plates were incubated at about 28±1° C. and about 80±5% relative humidity for 5 days. Egg and larval mortality was then visually assessed.

[2] = tested on: boll weevil (Anthonomus grandis); assay: Action on boll weevil (Anthonomus grandis), eggs on insect diet in microtiter plates; conditions: 120 h, egg and larval mortality after 5 days, read-out: mortality in comparison with untreated controls
Procedure: Example B3: Action on Boll Weevil (Anthonomus grandis)
For evaluating control of boll weevil (Anthonomus grandis) the test unit consisted of 96-well-microtiter plates containing an insect diet and 5-10 A. grandis eggs.
The compounds were formulated using a solution containing 75% v/v water and 25% v/v DMSO. Different concentrations of formulated compounds were sprayed onto the insect diet at 5 μl, using a custom built micro atomizer, at two replications.
After application, microtiter plates were incubated at about 25±1° C. and about 75±5% relative humidity for 5 days. Egg and larval mortality was then visually assessed.

[3] = tested on: Southern Armyworm (Spodoptera eridania), 2nd Instar Larvae; assay: Action on southern armyworm (Spodoptera eridania), 2nd instar larvae on sprayed lima bean plants; conditions: 96 h, 2nd instar larvae on lima bean plants, 4 days after treatment, read-out: mortality in comparison with untreated controls
Procedure: Example B7: Action on Southern Armyworm (Spodoptera eridania), 2nd Instar Larvae
The active compounds were formulated by a Tecan liquid handler in 100% cyclohexanone as a 10,000 ppm solution supplied in tubes. The 10,000 ppm solution was serially diluted in 100% cyclohexanone to make interim solutions. These served as stock solutions for which final dilutions were made by the Tecan in 50% acetone:50% water (v/v) into 10 or 20 ml glass vials. A nonionic surfactant (Kinetic®) was included in the solution at a volume of 0.01% (v/v). The vials were then inserted into an automated electrostatic sprayer equipped with an atomizing nozzle for application to plants/insects.
Lima bean plants (variety Sieva) were grown 2 plants to a pot and selected for treatment at the 1st true leaf stage. Test solutions were sprayed onto the foliage by an automated electrostatic plant sprayer equipped with an atomizing spray nozzle. The plants were dried in the sprayer fume hood and then removed from the sprayer. Each pot was placed into perforated plastic bags with a zip closure. About 10 to 11 armyworm larvae were placed into the bag and the bags zipped closed. Test plants were maintained in a growth room at about 25° C. and about 20-40% relative humidity for 4 days, avoiding direct exposure to fluorescent light (24 hour photoperiod) to prevent trapping of heat inside the bags. Mortality and reduced feeding were assessed 4 days after treatment, compared to untreated control plants.

[4] = tested on: Orchid thrips (Dichromothrips corbetti); assay: Action on orchid thrips (Dichromothrips corbetti), floral-immersion technique; conditions: adult thrips, mortality 72 hours after treatment, read-out: mortality in comparison with untreated controls
Procedure: Example B2: Action on Orchid thrips (Dichromothrips corbetti)
Dichromothrips corbetti adults used for bioassay were obtained from a colony maintained continuously under laboratory conditions. For testing purposes, the test compound is diluted in a 1:1 mixture of acetone:water (vol:vol), plus Kinetic® HV at a rate of 0.01% v/v.
Thrips potency of each compound was evaluated by using a floral-immersion technique. All petals of individual, intact orchid flowers were dipped into treatment solution and allowed to dry in Petri dishes. Treated petals were placed into individual re-sealable plastic along with about […]. All test arenas were held under continuous light and a temperature of about 28° C. for duration of the assay. After 3 days, the numbers of live thrips were counted on each petal. The percent mortality was recorded 72 hours after treatment.

[5] = tested on: Diamond Back Moth (Plutella xylostella); assay: Action on diamond back moth (Plutella xylostella), cabbage leaf dip; conditions: foliar, 3rd instar larvae on dipped cabbage leaves, mortality 72 hours after treatment, read-out: mortality in comparison with untreated controls
Procedure: Example B6: Action on Diamond Back Moth (Plutella xylostella)
The active compound is dissolved at the desired concentration in a mixture of 1:1 (vol:vol) distilled water:acetone. Surfactant (Kinetic® HV) is added at a rate of 0.01% (vol/vol). The test solution is prepared at the day of use.
Leaves of cabbage were dipped in test solution and air-dried. Treated leaves were placed in petri dishes lined with moist filter paper and inoculated with ten 3rd instar larvae. Mortality was recorded 72 hours after treatment. Feeding damages were also recorded using a scale of 0-100%.

[6] = tested on: yellow fever mosquito (Aedes aegypti); assay: whole plant or invertebrate; conditions: 48 h, larval mortality visually assessed after 2 days, read-out: mortality in comparison with untreated controls
Procedure: Example B1: Action on Yellow Fever Mosquito (Aedes aegypti)
For evaluating control of yellow fever mosquito (Aedes aegypti) the test unit consisted of 96-well-microtiter plates containing 200 μl of tap water per well and 5-15 freshly hatched A. aegypti larvae.
The active compounds were formulated using a solution containing 75% (v/v) water and 25% (v/v) DMSO. Different concentrations of formulated compounds or mixtures were sprayed onto the insect diet at 2.5 μl, using a custom built micro atomizer, at two replications.
After application, microtiter plates were incubated at 28+1° C., 80+5% RH for 2 days. Larval mortality was then visually assessed.

Cc1cccc(C)c1NC(=S)N/N=C/c1ccc2c(COc3ccc(OC(F)(F)F)cc3)nn(C)c2c1 [Example C-1, 1-(2,6-dimethylphenyl)-3-[(E)-[1-methyl-3-[[4-(trifluoromethoxy)phenoxy]methyl]indazol-6-yl]methyleneamino]thiourea]
≥ 75%: mortality at 800 ppm [1] | mortality at 800 ppm [2] | mortality at 300 ppm [3] | mortality at 500 ppm [4] | mortality at 500 ppm [5] | mortality at 800 ppm [6]

CC(C)c1ccccc1NC(=S)N/N=C/c1ccc2c(COc3ccc(OC(F)(F)F)cc3)nsc2c1 [Example C-22, 1-(2-isopropylphenyl)-3-[(E)-[3-[[4-(trifluoromethoxy)phenoxy]methyl]-1,2-benzothiazol-6-yl]methyleneamino]thiourea]
≥ 75%: mortality at 800 ppm [1] | mortality at 800 ppm [2] | mortality at 300 ppm [3] | mortality at 500 ppm [5]

CO[C@@H]1[C@@H](OC)[C@H](C)O[C@@H](OC(=O)Nc2ccc3c(NC(=O)c4ccc(OC(F)(F)F)cc4)nn(C)c3c2)[C@@H]1OC [Example C-5, [(2S,3R,4R,5S,6S)-3,4,5-trimethoxy-6-methyl-tetrahydropyran-2-yl] N-[1-methyl-3-[[4-(trifluoromethoxy)benzoyl]amino]indazol-6-yl]carbamate]
≥ 75%: mortality at 800 ppm [2] | mortality at 800 ppm [6]

CC(C)c1ccccc1NC(=S)NN=Cc1cc(F)c2c(C(=O)N(C)c3ccc(OC(F)(F)F)cc3)nn(C)c2c1 [Example C-18, 4-fluoro-6-[[(2-isopropylphenyl)carbamothioylhydrazono]methyl]-N,1-dimethyl-N-[4-(trifluoromethoxy)phenyl]indazole-3-carboxamide]
≥ 75%: mortality at 800 ppm [1] | mortality at 800 ppm [2] | mortality at 300 ppm [3] | mortality at 500 ppm [5]

CC(C)c1ccccc1NC(=S)N/N=C/c1cc2c(cn1)c(COc1ccc(OC(F)(F)F)cc1)nn2C [Example C-15, 1-(2-isopropylphenyl)-3-[(E)-[1-methyl-3-[[4-(trifluoromethoxy)phenoxy]methyl]pyrazolo[4,3-c]pyridin-6 yl]methyleneamino]thiourea]
≥ 75%: mortality at 800 ppm [1] | mortality at 800 ppm [2] | mortality at 300 ppm [3] | mortality at 500 ppm [4] | mortality at 500 ppm [5] | mortality at 800 ppm [6]

Cc1cccc(C)c1N1C(=O)CS/C1=N\N=C\c1ccc2c(COc3ccc(OC(F)(F)F)cc3)nn(C)c2c1 [Example C-2, (2Z)-3-(2,6-dimethylphenyl)-2-[(E)-[1-methyl-3-[[4-(trifluoromethoxy)phenoxy]methyl]indazol-6-yl]methylenehydrazono]thiazolidin-4-one]
≥ 75%: mortality at 800 ppm [1] | mortality at 800 ppm [2] | mortality at 500 ppm [4] | mortality at 500 ppm [5] | mortality at 800 ppm [6]

CC(C)c1ccccc1N1C(=O)CS/C1=N\N=C\c1ccc2c(COc3ccc(OC(F)(F)F)cc3)nn(C)c2c1 [Example C-4, (2Z)-3-(2-isopropylphenyl)-2-[(E)-[1-methyl-3-[[4-(trifluoromethoxy)phenoxy]methyl]indazol-6-yl]methylenehydrazono]thiazolidin-4-one]
≥ 75%: mortality at 800 ppm [2] | mortality at 500 ppm [4] | mortality at 500 ppm [5] | mortality at 800 ppm [6]

CC(C)c1ccccc1N1C(=O)CS/C1=N\N=C\c1ccc2c(COc3ccc(OC(F)(F)F)cc3)nsc2c1 [Example C-23, (2Z)-3-(2-isopropylphenyl)-2-[(E)-[3-[[4-(trifluoromethoxy)phenoxy]methyl]-1,2-benzothiazol-6-yl]methylenehydrazono]thiazolidin-4-one]
≥ 75%: mortality at 800 ppm [1] | mortality at 800 ppm [2] | mortality at 300 ppm [3] | mortality at 500 ppm [5]

CC(C)c1ccccc1N1C(=O)CS/C1=N\N=Cc1cc(F)c2c(C(=O)N(C)c3ccc(OC(F)(F)F)cc3)nn(C)c2c1 [Example C-19, 4-fluoro-6-[[(Z)-[3-(2-isopropylphenyl)-4-oxo-thiazolidin-2-ylidene]hydrazono]methyl]-N,1-dimethyl-N-[4-(trifluoromethoxy)phenyl]indazole-3-carboxamide]
≥ 75%: mortality at 800 ppm [1] | mortality at 800 ppm [2] | mortality at 300 ppm [3] | mortality at 500 ppm [4] | mortality at 500 ppm [5] | mortality at 800 ppm [6]

CC(C)c1ccccc1NC(=S)N/N=C/c1ccc2c(COc3ccc(OC(F)(F)F)cc3)noc2c1 [Example C-24, 1-(2-isopropylphenyl)-3-[(E)-[3-[[4-(trifluoromethoxy)phenoxy]methyl]-1,2-benzoxazol-6-yl]methyleneamino]thiourea]
≥ 75%: mortality at 800 ppm [1] | mortality at 800 ppm [2] | mortality at 500 ppm [5]

CC(C)c1ccccc1N1C(=O)CS/C1=N\N=C\c1ccc2c(COc3ccc(OC(F)(F)F)cc3)noc2c1 [Example C-25, (2Z)-3-(2-isopropylphenyl)-2-[(E)-[3-[[4-(trifluoromethoxy)phenoxy]methyl]-1,2-benzoxazol-6-yl]methylenehydrazono]thiazolidin-4-one]
≥ 75%: mortality at 800 ppm [1] | mortality at 800 ppm [2] | mortality at 500 ppm [5] | mortality at 800 ppm [6]

CC(C)c1ccccc1N1C(=O)CS/C1=N\N=C\c1ccc2c(C(=O)Nc3ccc(OC(F)(F)F)cc3)nn(C)c2c1 [Example C-8, 6-[(E)-[(Z)-[3-(2-isopropylphenyl)-4-oxo-thiazolidin-2-ylidene]hydrazono]methyl]-1-methyl-N-[4-(trifluoromethoxy)phenyl]indazole-3-carboxamide]
≥ 75%: mortality at 800 ppm [1] | mortality at 800 ppm [2] | mortality at 300 ppm [3] | mortality at 500 ppm [5] | mortality at 800 ppm [6]

CC(C)c1ccccc1NC(=S)NN=Cc1cc(F)c2c(C(=O)Nc3ccc(OC(F)(F)F)cc3)nn(C)c2c1 [Example C-17, 4-fluoro-6-[[(2-isopropylphenyl)carbamothioylhydrazono]methyl]—1-methyl-N-[4-(trifluoromethoxy)phenyl]indazole-3-carboxamide]
≥ 75%: mortality at 800 ppm [1] | mortality at 800 ppm [2] | mortality at 300 ppm [3]

CC(C)c1ccccc1NC(=S)N/N=C/c1ccc2c(C(=O)Nc3ccc(OC(F)(F)F)cc3)nn(C)c2c1 [Example C-7, 6-[(E)-[(2-isopropylphenyl)carbamothioylhydrazono]methyl]-1-methyl-N-[4-(trifluoromethoxy)phenyl]indazole-3-carboxamide]
≥ 75%: mortality at 800 ppm [1] | mortality at 800 ppm [2] | mortality at 300 ppm [3] | mortality at 500 ppm [5] | mortality at 800 ppm [6]
